assay: Human HepG2 cell viability assay in 384 well format; assay type: toxicity, cell-based; set-up: dose 125 nL, time 70.5 hour; concentration not given beside the values; settings: HepG2 cells, read-out: Inhibition

First: O=C(NCC1CC1)C1CN(C(=O)NC2CCCC2)Cc2cncn2C1 (configuration not stated)
Second: O=C(NCC1CC1)C1CN(C(=O)c2cnccn2)CC12CCOCC2 (configuration not stated)
The cytotoxicity at 70.5 h of the first is lower: -6.07% for the first, -2.91% for the second.

Going from `Cn1c(=O)c2sccc2n(CC(=O)Nc2cccc(Cl)c2)c1=O` to `Cn1cccc(NC(=O)NCc2cccc(CO)c2)c1=O`, the cytotoxicity at 70.5 h falls from 8.96% to 7.6%.

Compared with `Cc1noc(CCCC(=O)N2CCCC2c2ccsc2)n1` (configuration not stated), `CCCc1noc(CCC(=O)N2CCCC2c2noc(C3CC3)n2)n1` (configuration not stated) is lower in cytotoxicity at 70.5 h: -8.85% for the first, -16.9% for the second.

Going from `Cc1cccc(-c2nnc(C(C)N3CCn4c(C)nnc4C3)o2)c1` (configuration not stated) to `Cc1nc(C)c(-c2nnc(SCC(=O)O)n2C(C)c2ccccc2)o1` (configuration not stated), the cytotoxicity at 70.5 h rises from -12.4% to -2.71%.

Going from `Cc1cc(NC(=O)C2CCN(c3ncccc3C#N)CC2)no1` to `O=C(N1CCOCC1)N1CCCC1c1nc(-c2ccccn2)no1` (configuration not stated), the cytotoxicity at 70.5 h falls from 3.46% to -8.93%.

First: Cc1noc(C)c1CN1C(=O)[C@H]2CC[C@@H]1CN(Cc1cscn1)C2
Second: CCc1nc(CN2CCN(C(=O)c3cc(C)no3)CC2)cs1
The cytotoxicity at 70.5 h of the first is higher: -6.64% for the first, -8.13% for the second.

Going from `Cc1nc(C2CCCN(C(=O)c3cccc4c3OCCO4)C2)no1` (configuration not stated) to `Cc1n[nH]c(C2CN(C(=O)c3cc(C4CC4)on3)CCO2)n1` (configuration not stated), the cytotoxicity at 70.5 h rises from -1.54% to 17%.

Going from `Cc1ccc2oc(=O)n(CCC(=O)N3CCN(C)C(=O)C3)c2c1` to `O=C(Cc1ccccc1F)N1CCC[C@@H]1Cn1c(=O)oc2ccccc21`, the cytotoxicity at 70.5 h rises from -3.44% to 6.08%.

First: CCN(Cc1ccc2c(c1)OCCO2)C(=O)NC(C)Cn1cccn1 (configuration not stated)
Second: Cc1nc(CCNC(C)c2ccc3c(c2)OCCCO3)cs1 (configuration not stated)
The cytotoxicity at 70.5 h of the first is lower: 0.788% for the first, 0.884% for the second.

First: CNC(=O)CN1CC[C@H]2CN(C(=O)c3ccccc3C)C[C@H]2C1
Second: Cc1nn(C)cc1CN1CCC(C2Nc3ccccc3S(=O)(=O)N2)CC1 (configuration not stated)
The cytotoxicity at 70.5 h of the first is higher: -3.61% for the first, -12.8% for the second.

Compared with `O=C(CN1CCS(=O)(=O)CC1)NC1CCCCc2ccccc21` (configuration not stated), `CCN1CCN(C2(C(=O)NC3CCCC3)Cc3ccccc3C2)CC1` is lower in cytotoxicity at 70.5 h: -1.09% for the first, -3.96% for the second.

Compared with `CCS(=O)(=O)N1CCN(CCOC)c2ncccc2C1`, `CCCS(=O)(=O)N1CCC2(CCC(=O)N(CCc3cccnc3)C2)CC1` is lower in cytotoxicity at 70.5 h: -4.33% for the first, -10.9% for the second.

First: COCCN1CCC2(CC1)C(=O)Nc1ccc(C(=O)NC(C)C)cc12
Second: CCN1CCC(Cn2ccc3ccc(C(=O)OC)cc3c2=O)C1 (configuration not stated)
The cytotoxicity at 70.5 h of the first is higher: 1.35% for the first, -6.6% for the second.

Going from `CC(C)Oc1cccc(CNC(=O)N2CCC(N3CC=CC3)C2)c1` (configuration not stated) to `O=C(Nc1ccc(-n2cccn2)cc1)N1CCC(O)C1` (configuration not stated), the cytotoxicity at 70.5 h rises from 26.6% to 28.4%.

Compared with `CC(C(=O)Nc1ccc(N2CCCC2)nc1)n1ccnc1` (configuration not stated), `CC(C)N1CC2(CCCN(c3ccccn3)C2)CCC1=O` (configuration not stated) is higher in cytotoxicity at 70.5 h: -11.6% for the first, -6.62% for the second.

Compared with `c1cc(C2CCN(Cc3nc(C4CC4)no3)CC2)[nH]n1`, `CCc1noc(CCC(=O)N2CCC(c3ccn[nH]3)C2)n1` (configuration not stated) is higher in cytotoxicity at 70.5 h: -6.11% for the first, 17.8% for the second.

Going from `Cc1cnn(CCNCc2cccnc2)c1` to `CN(Cc1cccnc1)C[C@H]1CC[C@@H](Cc2ccc3c(cnn3C)c2)O1`, the cytotoxicity at 70.5 h falls from -1.13% to -10.4%.

Compared with `COc1ccc(CNCCc2cccc(C(N)=O)c2)cc1O`, `CCc1ccc(C(O)CN2CCN(c3cccc(OC)c3)CC2)cc1` (configuration not stated) is lower in cytotoxicity at 70.5 h: -6.24% for the first, -29.4% for the second.

First: CCC(C)(CO)NC(=O)Nc1cc2c(cc1SC)OCCO2 (configuration not stated)
Second: CSC(C)(C)CNC(=O)NC1CCC1
The cytotoxicity at 70.5 h of the first is higher: -1.22% for the first, -1.66% for the second.

Going from `Cc1nc(CN2CCCC(CCc3ccccc3C(F)(F)F)C2)no1` (configuration not stated) to `Clc1ccccc1CN1CCCC(c2nnc(-c3cnccn3)o2)C1` (configuration not stated), the cytotoxicity at 70.5 h rises from -8.94% to -5.49%.

Going from `CC(C)c1n[nH]c(C2CN(CCc3cccs3)CCO2)n1` (configuration not stated) to `CCOc1nnc(CN2CCOC(CNc3cccnn3)C2)s1` (configuration not stated), the cytotoxicity at 70.5 h rises from -6.41% to 15%.

First: CC(NC(=O)NCc1ccccn1)c1ccc2c(c1)CCC(=O)N2 (configuration not stated)
Second: O=C1CCc2cc(S(=O)(=O)NCc3cc4n(n3)CCCNC4)ccc2N1
The cytotoxicity at 70.5 h of the first is higher: -6.54% for the first, -12.2% for the second.

Compared with `CC(C)N1CCCCC1c1cncc(Cl)n1` (configuration not stated), `Cc1nn(C)c(Cl)c1C1CCCN1C(=O)c1ccnn1C` (configuration not stated) is lower in cytotoxicity at 70.5 h: 17.6% for the first, -14.4% for the second.

First: c1cnc(NCc2nnn3c2CN(Cc2ccsc2)CCC3)nc1
Second: O=C(c1ccco1)N1CCOC2(COCCN(c3ncccn3)C2)C1 (configuration not stated)
The cytotoxicity at 70.5 h of the first is lower: -118% for the first, -14.8% for the second.

Going from `O=C(NCc1nnc2n1CCC2)c1ccc(Br)s1` to `Cn1nc2c(cc1=O)CN(CC(=O)Nc1nncs1)CC2`, the cytotoxicity at 70.5 h rises from -5.66% to -1.1%.

Going from `CN(C)S(=O)(=O)N1CCCCC1CCc1ccc(O)cc1` (configuration not stated) to `COc1ccc2cc(C3CN(C(=O)N(C)C)CCO3)ccc2c1` (configuration not stated), the cytotoxicity at 70.5 h rises from -6.59% to 26.1%.

First: O=C(Nc1cccc(C(F)F)c1)N[C@@H]1C=C[C@H](CO)C1
Second: O=C(NCC1(CO)CC1)c1ccccc1Cl
The cytotoxicity at 70.5 h of the first is higher: 2.83% for the first, -14.1% for the second.

Compared with `CCN1CCC2(CCC1=O)CN(c1nccc(N)n1)CCN2C` (configuration not stated), `CN1C(=O)CC(c2cnn(C)c2)C12CCN(C(=O)c1cccn1C)CC2` (configuration not stated) is lower in cytotoxicity at 70.5 h: -4.72% for the first, -13.1% for the second.

Compared with `CCC/N=c1/c(NC(=O)NCCCOC)c(O)oc2ccccc12`, `CCC(=O)NCC(=O)NC(C)c1ccc(OCCC(C)C)cc1` (configuration not stated) is lower in cytotoxicity at 70.5 h: 29.3% for the first, -2.78% for the second.

Going from `Cc1nn(CCO)cc1CN1CCCN(C2CCCC2)CC1` to `CC(=O)NCC(=O)N1CCCC1c1ccc(CN2CCOCC2)cn1` (configuration not stated), the cytotoxicity at 70.5 h falls from 12.8% to -4.76%.

Going from `O=C(NCC(O)COc1ccccc1)C1(c2ccc(F)cc2)CC1` (configuration not stated) to `COCC(C)Nc1ccc(-c2nc(Cc3ccc(F)cc3)no2)cn1` (configuration not stated), the cytotoxicity at 70.5 h rises from -10.3% to 27.4%.

First: c1ccc(-c2nc(CCNc3nnc(C4CCC4)o3)no2)cc1
Second: CN1CCOC(CNCc2ccccc2OCc2ccccn2)C1 (configuration not stated)
The cytotoxicity at 70.5 h of the first is higher: 15.9% for the first, -9.16% for the second.

First: COc1ccc(CN(CC2CCCO2)c2nc3c(s2)c(C)nn3C)cc1 (configuration not stated)
Second: COc1ccc(C2CC(=O)Nc3nc(N4CCOCC4)sc32)cc1 (configuration not stated)
The cytotoxicity at 70.5 h of the first is higher: 41.8% for the first, -6.38% for the second.

Going from `Cc1cnccc1N1CCCN(C(=O)CCc2n[nH]c(C)c2C)CC1` to `CCOc1ccc(C(=O)N2Cc3cnc(CC)nc3C2)o1`, the cytotoxicity at 70.5 h falls from 18.7% to -3.48%.

Compared with `O=C(CCn1cncn1)Nc1ccc(F)cc1OCC1CC1`, `Cn1cc(C(=O)CC2CCCN2C(=O)c2ccc(Cl)cn2)cn1` (configuration not stated) is higher in cytotoxicity at 70.5 h: -9.3% for the first, -8.95% for the second.

Compared with `CC(C)N1CCC(Nc2ccn(C)n2)C1=O` (configuration not stated), `CC(C)CN1CCC(c2nc3c([nH]2)CC(C)(C)CNC3=O)C1` (configuration not stated) is lower in cytotoxicity at 70.5 h: -3.38% for the first, -9.67% for the second.

Compared with `Cc1csc(CCNc2ccc(C#N)cn2)n1`, `Cc1cnc(NC(=O)c2ccc(-n3ncc(C#N)c3N)cc2)s1` is higher in cytotoxicity at 70.5 h: -11.4% for the first, 8.89% for the second.

Going from `O=C(O)CSc1nnc(-c2ccco2)n1-c1ccccc1C(F)(F)F` to `O=C(c1ccc2c(c1)OCO2)N1CCC(C(=O)O)(c2ccccc2)CC1`, the cytotoxicity at 70.5 h falls from -4.07% to -11.1%.

Compared with `Cc1n[nH]cc1CNC1(c2ccc(Br)cc2)CC1`, `CCC1c2ccsc2CCN1C(=O)NCc1cccnc1N(C)C` (configuration not stated) is higher in cytotoxicity at 70.5 h: -0.84% for the first, 13% for the second.

Compared with `CS(=O)(=O)N[C@@H]1CN(Cc2ccoc2)C[C@@H]2CCCO[C@@H]21`, `O=C(c1ccsc1)N1CC(C(=O)N2CCOCC2)C2(CCOCC2)C1` (configuration not stated) is higher in cytotoxicity at 70.5 h: -8.39% for the first, -1.97% for the second.

First: CC(C)CNC(=O)COc1cccc[n+]1[O-]
Second: O=C(NCCCN1CCCC1=O)c1nc(-c2ccc3[nH]ccc3c2)no1
The cytotoxicity at 70.5 h of the first is higher: 0.267% for the first, -29.3% for the second.

— ChEMBL document CHEMBL3507680, “University of Dundee, Gates Library screen for HepG2 cell viability”
